# Assay results reported in patent publication US7655395B2, “Isolation and use of ryanodine receptors” (E.I. du Pont de Nemours and Company, priority 2002, dated 2010).
# Tests used:
# [1] = tested on: control cells without DNA / wild-type Sf9 cells; assay: Calcium response in control Sf9 cells (without DNA, lipid only, non-transfected, wild type); type: cell-based, Spodoptera frugiperda; details: Compound 5 3 μM
# Text: (§1) Several drops of a suspension of recombinant Spodoptera frugiperda cell line, Sf9, transiently expressing insect ryanodine receptors were placed on a poly-L-lysine-coated coverslip and allowed to attach. Cells were then rinsed in physiological saline having the following composition (mM): NaCl 130; KCl 5.4; MgCl2 1.2; CaCl2 1.0; NaHCO3 4.2; NaH2P04 7.3; Glucose 10; Sucrose 63; MES 20; pH 6.3. Cells were then bathed in physiological saline containing the calcium sensitive fluoroprobe, Fura-2 AM (2 μM), and Pluronic F127 (0.002%) for 30 min. Cells were rinsed in standard physiological saline for at least 15 min prior to testing. Testing was conducted in standard physiological saline, as the cell lines are devoid of functional voltage-gated calcium channels.
# Imaging studies were conducted using a Nikon Diaphot microscope with a 40× oil immersion objective (NA 1.3) Image acquisition and processing was performed using the MetaFluor™ imaging system from Universal Imaging Corporation (West Chester, Pa.) Calcium calibration was carried out using the Grynkiewicz equation with a dissociation constant (Kd) of 145 nM for Fura-2 (Grynkiewicz et al., 1985). Cell-attached coverslips were placed in a sealed chamber with physiological saline continuously perfused across the cells using a peristaltic pump. Test compounds solubilized in physiological saline were applied by switching the perfusate source.
# (§2) For studies involving the stable recombinant Spodoptera frugiperda cell line, Sf9, (other cell lines could also be used such as Sf21, S2, etc) expressing an insect ryanodine receptor from Drosophila melanogaster, or Heliothis virescens (alternatively receptors from other species such as Myzus persicae, Peregrinus maidis, Aphis gossypii, etc) were grown in T75 (or other appropriate sized) flasks in supplemented Grace's insect medium. Cells were maintained in an incubator at 22° C. until testing. Cells were suspension-loaded with the calcium sensitive fluoroprobe, Fura-2 AM (1-2 μM) and Pluronic F127 (0.002%) in culture medium for 30 minutes under agitation. Cells were then centrifuged and the pellet resuspended in physiological saline having the following composition (mM): NaCl 130; KCl 5.4; MgCl2 1.2; CaCl2 1.0; NaHCO3 4.2; NaH2P04 7.3; Glucose 10; Sucrose 63; MES 20; pH 6.3 at approximately 150,000-200,000 cells per well (96-well plate). After a 30 minute equilibration period the cell plate was tested using a Molecular Devices' FlexStation™ system with dual wavelength excitation (340 and 380 nm) and fluorescence emission measured at 510 nm. Test and control samples were added using integrated fluidics and the intracellular calcium monitored over a 2 minute period.
# [2] = tested on: recombinant Heliothis virescens ryanodine receptor (expressed in Sf9 cells); assay: Calcium release assay, Sf9 cells transiently or stably expressing Heliothis virescens ryanodine receptor (Fura-2); type: cell-based; details: Cpd 5 3 μM; Sf9 transiently expressing H. virescens ryanodine receptor, 72 hr post-transfection; FIG. 4
# Description: SF9 cells were grown at 27 degrees C. in a Corning 125 ml polycarbonate Erlenmeyer flask to a density of 3.1 million cells per ml in SF900-II serum free media (Gibco catalog no. 10902-088, Invitrogen™, Carlsbad, Calif.). One million cells were transferred to one well of a Corning 6-well, flat bottom cell culture dish (Corning Inc., Acton, Mass., catalog no. 3516). SF900-II media was used to bring the final volume in the dish to 2 ml and the cells were incubated at 27 degrees C. for 21 h. Following the incubation the media was aspirated from the dish and replaced with 1 ml of SF900-II media pre-warmed to 27 degrees C.
# In the case of the vectors containing the Cre recognition elements, the transfection solution was mixed in a 1.5 ml microfuge tube by combining 5 ug of pHE7 plasmid, 5 ug of pMLS104 Cre plasmid and 0.5 ug of lacZ reporter plasmid, 15 ug of cellfectin reagent (Invitrogen cat. #10362-010) and SF900-II serum free media (Gibco catalog #10902-088, Invitrogen™, Carlsbad, Calif.) in a total volume of 500 ul. The solution was incubated for 1 hour at room temperature just prior to the transfection.
# The transfection was accomplished by adding the transfection solution drop-wise to the dish and incubating 4 h at room temperature with gentle rocking. After the 4 h incubation the media was replaced with 2 ml of SF900-II media pre-warmed to 27 degrees C. and the cells were incubated 3 days at 27 degrees C.
# as §1, with “Testing was conducted in standard physiological saline, as the cell lines are devoid of functional voltage-gated calcium channels.” left out
# For studies involving the stable recombinant Spodoptera frugiperda cell line, Sf9, (other cell lines could also be used such as Sf21, S2, etc) expressing an insect ryanodine receptor from Drosophila melanogaster, or Heliothis virescens (alternatively receptors from other species such as Myzus persicae, Peregrinus maidis, Aphis gossypii, etc) were grown in T75 (or other appropriate sized) flasks in supplemented Grace's insect medium. […] After a 30 minute equilibration period the cell plate was tested using a Molecular Devices' FlexStation™ system with dual wavelength excitation (340 and 380 nm) and fluorescence emission measured at 510 nm. […]
# [3] = target: T1, recombinant Drosophila melanogaster ryanodine receptors (expressed in Sf9 cells) (Drosophila melanogaster, UniProt Q24498); type: cell-based; details: receptor expressed in Sf9 cells
# T1 construct: expressed in transfected cells
# Description: The Spodoptera frugiperda cell line Sf9 used for transfection studies, was maintained in Sf-900 II SFM medium (Invitrogen Life Technologies™, Carlsbad, Calif.) in T-75 flasks incubated at 27° C. It is understood that those skilled in the art might choose alternative cell types such as the Spodoptera frugiperda cell line Sf21 or the Drosophila cell line S2. For the purpose of general handling and propagation, cells were suspended through scraping or agitation and a volume of cell suspension was added to each well of a poly-L-lysine coated 96-well, glass-bottom plate so as to provide 70-80% confluence. Cells were maintained in an incubator at 27° C. until testing.
# SF900-II media was used to bring the final volume in the dish to 2 ml and the cells were incubated at 27 degrees C. for 21 h. Following the incubation the media was aspirated from the dish and replaced with 1 ml of SF900-II media pre-warmed to 27 degrees C.
# The transient transfection was carried out following an InsectSelect BSD System manual (Invitrogen Life Technologies™, Carlsbad, Calif.). […] The transfection was accomplished by adding the transfection solution drop-wise to the dish and incubating 4 h at room temperature with gentle rocking. […]
# as §1
# Cell-attached coverslips were placed in a sealed chamber with physiological saline continuously perfused across the cells using a peristaltic pump. Test compounds solubilized in physiological saline were applied by switching the perfusate source.
# as §2
# [4] = target: native cockroach ryanodine receptors (roach femoral muscle membranes) (Periplaneta americana, UniProt A0ABQ8T696); assay: Radioligand displacement ([3H]-GN analog Cpd 1) on roach femoral muscle membranes; type: binding; details: displacement of [3H]-Cpd 1, roach muscle membranes, 60 min at 32° C.; read-out: Displacement IC50 (nM) P. americana
# Description: Binding to Roach Femoral Muscle Membranes:
# Assays were carried out in triplicate.
# native cockroach ryanodine receptors (roach femoral muscle membranes), sequence (A0ABQ8T696 entry or part of it): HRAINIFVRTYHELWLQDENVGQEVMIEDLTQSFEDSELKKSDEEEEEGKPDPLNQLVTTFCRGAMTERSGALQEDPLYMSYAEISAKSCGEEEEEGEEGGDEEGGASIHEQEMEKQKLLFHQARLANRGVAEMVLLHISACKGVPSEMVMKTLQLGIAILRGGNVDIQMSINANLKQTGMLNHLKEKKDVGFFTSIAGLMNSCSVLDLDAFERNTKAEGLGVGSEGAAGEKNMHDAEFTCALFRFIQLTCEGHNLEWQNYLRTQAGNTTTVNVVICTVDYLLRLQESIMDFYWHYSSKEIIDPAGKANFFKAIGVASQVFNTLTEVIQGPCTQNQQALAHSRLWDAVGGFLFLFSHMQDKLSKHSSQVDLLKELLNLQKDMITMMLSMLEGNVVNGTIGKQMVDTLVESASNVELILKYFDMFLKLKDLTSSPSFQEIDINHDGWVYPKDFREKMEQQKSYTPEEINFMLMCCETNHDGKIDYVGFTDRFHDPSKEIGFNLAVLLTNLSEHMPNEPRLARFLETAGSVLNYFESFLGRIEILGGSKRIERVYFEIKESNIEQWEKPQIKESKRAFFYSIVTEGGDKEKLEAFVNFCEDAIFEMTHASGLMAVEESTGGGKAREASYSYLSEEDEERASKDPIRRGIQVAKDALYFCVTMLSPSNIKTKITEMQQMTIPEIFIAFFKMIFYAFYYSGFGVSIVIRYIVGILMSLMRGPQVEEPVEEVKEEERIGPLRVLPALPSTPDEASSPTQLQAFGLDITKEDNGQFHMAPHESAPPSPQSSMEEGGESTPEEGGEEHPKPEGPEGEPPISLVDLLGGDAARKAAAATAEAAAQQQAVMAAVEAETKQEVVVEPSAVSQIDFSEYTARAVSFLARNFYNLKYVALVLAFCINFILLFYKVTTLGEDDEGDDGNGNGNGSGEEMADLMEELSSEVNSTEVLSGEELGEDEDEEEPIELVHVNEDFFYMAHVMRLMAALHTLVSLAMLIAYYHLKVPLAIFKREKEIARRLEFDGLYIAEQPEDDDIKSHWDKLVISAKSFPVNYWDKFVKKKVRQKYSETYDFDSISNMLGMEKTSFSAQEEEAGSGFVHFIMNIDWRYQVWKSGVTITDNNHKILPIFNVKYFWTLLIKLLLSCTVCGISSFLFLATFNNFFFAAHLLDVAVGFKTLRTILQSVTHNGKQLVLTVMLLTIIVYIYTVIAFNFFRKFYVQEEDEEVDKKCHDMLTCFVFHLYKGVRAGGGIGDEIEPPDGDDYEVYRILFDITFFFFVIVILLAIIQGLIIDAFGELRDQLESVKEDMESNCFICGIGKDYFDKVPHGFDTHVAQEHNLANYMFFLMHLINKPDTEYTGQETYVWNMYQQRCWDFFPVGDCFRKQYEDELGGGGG
smiles,measurement,setting,value
"Cc1cccc(C(=O)NC(C)C)c1NC(=O)c1cc(C(F)(F)F)nn1-c1ncccc1Cl [Cpd 5, 1-(3-Chloro-2-pyridinyl)-N-[2-methyl-6-[[(1-methylethyl)amino]carbonyl]phenyl]-3-(trifluoromethyl)-1H-pyrazole-5-carboxamide]",calcium response in control cells without DNA,[1],No significant calcium responses
same,cytosolic [Ca2+] response,[2],increase in cytosolic [Ca^2+]
same,Calcium Release Threshold (nM) D. melanogaster,[3],<300 nM
same,IC50,[4],< 300 nM
